According to patent US8399468B2, “Octahydro-pyrrolo[3,4-B]pyrrole derivatives” (Abbott Laboratories, priority 2006, dated 2013):

Conditions: compared with the 2-{4′-[(3aR,6aR)-5-methylhexahydropyrrolo[3,4-b]pyrrol-1(2H)-yl]-1,1′-biphenyl-4-yl}pyridazin-3(2H)-one compound

Compound: CN1C[C@H]2CCN(c3ccc(-c4ccc(-n5ncccc5=O)cc4)cc3)[C@H]2C1.O.O=C(O)C(O)C(O)C(=O)O [L-tartrate monohydrate Form A salt, 2-{4′-[(3aR,6aR)-5-Methylhexahydropyrrolo[3,4-b]pyrrol-1(2H)-yl]-1,1′-biphenyl-4-yl}pyridazin-3(2H)-one L-tartrate monohydrate Form A]
- relative oxidative stability: better relative oxidative stability
